Where “and” joins values, the source holds several entries; their conditions need not be identical. Identical values can stand only once.
System: custom murine 40-gene Precision Profile for Rheumatoid Arthritis, whole blood
Experiment: KRN (K/BxN) serum transfer induced arthritis model, whole blood gene expression by QPCR, vehicle or dexamethasone treatment
Format: in vivo, female BALB/c mice
Details: for ABCA1_M Normalized CT Value (Delta CT) / APAF1_M Normalized CT Value (Delta CT) / ARG2_M Normalized CT Value (Delta CT) / CASP1_M Normalized CT Value (Delta CT) / CASP3_M Normalized CT Value (Delta CT) / CCR3_M Normalized CT Value (Delta CT) / CD3Z_M Normalized CT Value (Delta CT) / CD8A_M Normalized CT Value (Delta CT) / CD14_M Normalized CT Value (Delta CT) / CD19_M Normalized CT Value (Delta CT) / CD86_M Normalized CT Value (Delta CT) / CSPG2_M Normalized CT Value (Delta CT) / F3_M Normalized CT Value (Delta CT) / HMOX1_M Normalized CT Value (Delta CT) / HSPA1A—M Normalized CT Value (Delta CT) / ICAM1—M Normalized CT Value (Delta CT) / IFI16—M Normalized CT Value (Delta CT) / IL1B_M Normalized CT Value (Delta CT) / IL10_M Normalized CT Value (Delta CT): whole blood
Procedure: Whole blood gene expression changes were evaluated in vehicle control and drug-treated murine subjects across two murine models of arthritis according to the following arthritis models:
KRN Transgenic Mouse (K/B×N): K/B×N serum from transgenic mouse used to induce arthritis in female BALB/c mice (n=54). Collagen Induced Arthritis (CIA): Bovine type II collagen used to induce arthritis in male DBA/1 mice (n=54).
In addition, naïve, untreated animal groups at baseline and terminal day were included to control for potential age-related changes in gene expression over the extended study periods. Animal groups, time-points, and treatment schedules are summarized in Tables 20A and 20B, respectively.
Whole blood samples from animals were collected by retro-orbital bleed at selected time-points in accordance with the arthritis study schemas described in […], and transferred into sample collection tubes containing a 1.5× lysis solution and RPMI. Samples were processed into total RNA and cDNA. […] It was anticipated from these murine models would provide a better understanding of the relevant molecular response of arthritis induction and their potential correlation to the human disease condition.
Normal murine subject reference values (represented as normalized Ct or ΔCt values) were established for male DBA/1 mice (n=6 for the CIA study arm) and female BALB/c mice (n=6 for the KRN study arm). In both arms of the study, gene expression response of normal (naïve, non-immunized and untreated) murine subjects were evaluated in groups of 6 each at day 0 and day 60 for the CIA study arm, and at day 0 and day 21 for the KRN study arm (see Tables 20A and 20B).
Gene expression responses for the arthritis-induced murine model were evaluated for untreated mice at day 3 and vehicle-treated mice at days 7, 14 and 21 to characterize disease progression.

[1] = KRN Day 14, Dex-treated, individual murine subject
[2] = KRN Day 14, Dex-treated, individual murine subject, listed as Dex
[3] = KRN Day 14 Dex, individual mouse, listed as Dex
[4] = KRN Day 21, Dex-treated, group Average
[5] = KRN Day 21, Dex-treated, individual murine subject, listed as Dex
[6] = KRN Day 21 Dex, individual mouse, listed as Dex

## C[C@@H]1C[C@H]2[C@@H]3CCC4=CC(=O)C=C[C@]4(C)[C@@]3(F)[C@@H](O)C[C@]2(C)[C@@]1(O)C(=O)CO [Dexamethasone]
[1]
  Normalized CT Value (Delta CT) TLR4_M: 18.49
  Normalized CT Value (Delta CT) TNFSF5—M: 19.61
  Normalized CT Value (Delta CT) TNF_M: 20.58
  Normalized CT Value (Delta CT) VEGF_M: 20.76
[2]
  Normalized CT Value (Delta CT) IL1RAP_M: 18.49 and 19.00 and 18.48 and 18.13 and 18.59 and 18.81
  Normalized CT Value (Delta CT) IL1RN—M: 17.70 and 17.88 and 17.80 and 17.59 and 17.72 and 17.52
  Normalized CT Value (Delta CT) IL6_M: 25.39 and 25.69 and 25.54 and 25.34 and 25.89 and 25.05
  Normalized CT Value (Delta CT) JUN_M: 19.76 and 19.88 and 19.77 and 19.35 and 19.58 and 19.68
  Normalized CT Value (Delta CT) MEF2C—M: 20.59 and 19.97 and 20.74 and 19.83 and 20.88 and 19.95
  Normalized CT Value (Delta CT) MMP9—M: 14.51 and 14.33 and 14.28 and 14.07 and 14.70 and 14.83
  Normalized CT Value (Delta CT) NFKB1—M: 17.37 (2×) and 17.12 and 17.30 and 16.77 and 17.79
  Normalized CT Value (Delta CT) PADI4—M: 18.74 and 18.78 and 18.81 and 18.39 and 18.98 and 19.03
  Normalized CT Value (Delta CT) PLA2G7—M: 15.31 and 15.29 and 15.04 and 14.93 and 15.33 and 15.36
KRN Day 14 Dex, group Average
  ABCA1_M Normalized CT Value (Delta CT): 18.74
  APAF1_M Normalized CT Value (Delta CT): 19.47
  ARG2_M Normalized CT Value (Delta CT): 17.37
  CASP1_M Normalized CT Value (Delta CT): 19.02
  CASP3_M Normalized CT Value (Delta CT): 17.77
  CCR3_M Normalized CT Value (Delta CT): 19.21
  CD3Z_M Normalized CT Value (Delta CT): 17.27
  CD8A_M Normalized CT Value (Delta CT): 18.32
  CD14_M Normalized CT Value (Delta CT): 19.94
  CD19_M Normalized CT Value (Delta CT): 17.52
  CD86_M Normalized CT Value (Delta CT): 23.30
  CSPG2_M Normalized CT Value (Delta CT): 20.94
  F3_M Normalized CT Value (Delta CT): 23.16
  HMOX1_M Normalized CT Value (Delta CT): 18.18
  HSPA1A—M Normalized CT Value (Delta CT): 21.59
  ICAM1—M Normalized CT Value (Delta CT): 19.42
  IFI16—M Normalized CT Value (Delta CT): 17.45
  IL1B_M Normalized CT Value (Delta CT): 14.29
  IL10_M Normalized CT Value (Delta CT): 25.56
[3]
  ABCA1_M Normalized CT Value (Delta CT): 18.85 and 18.64 and 18.31 and 18.46 and 19.46 and 18.75
  APAF1_M Normalized CT Value (Delta CT): 19.78 and 19.62 and 19.16 and 19.37 and 19.43
  ARG2_M Normalized CT Value (Delta CT): 17.30 and 17.84 and 17.05 and 16.89 and 17.70 and 17.43
  CASP1_M Normalized CT Value (Delta CT): 19.00 and 18.87 and 18.99 and 19.15 and 19.23 and 18.90
  CASP3_M Normalized CT Value (Delta CT): 17.98 and 17.63 and 17.87 and 17.16 and 17.93 and 18.06
  CCR3_M Normalized CT Value (Delta CT): 19.56 and 18.34 and 19.23 and 18.45 and 19.90 and 19.79
  CD3Z_M Normalized CT Value (Delta CT): 17.27 and 17.38 and 17.23 and 16.92 and 18.16 and 16.68
  CD8A_M Normalized CT Value (Delta CT): 18.76 and 18.05 and 18.11 and 17.83 and 19.21 and 17.94
  CD14_M Normalized CT Value (Delta CT): 19.50 and 20.04 and 19.93 and 20.22 and 19.63 and 20.29
  CD19_M Normalized CT Value (Delta CT): 17.84 and 17.32 (2×) and 18.33 and 17.39
  CD86_M Normalized CT Value (Delta CT): 23.63 and 23.21 and 23.28 and 22.53 and 23.60 and 23.56
  CSPG2_M Normalized CT Value (Delta CT): 21.74 and 21.15 and 20.43 and 21.79 and 19.79 and 20.71
  F3_M Normalized CT Value (Delta CT): 22.18 and 23.66 and 21.85 and 24.55 and 21.66 and 25.05
  HMOX1_M Normalized CT Value (Delta CT): 17.83 and 18.22 and 17.82 and 18.09 and 18.31 and 18.81
  HSPA1A—M Normalized CT Value (Delta CT): 21.44 and 22.20 and 21.91 and 21.55 and 20.95 and 21.51
  ICAM1—M Normalized CT Value (Delta CT): 19.58 and 19.31 and 19.39 and 19.05 and 19.89 and 19.28
  IFI16—M Normalized CT Value (Delta CT): 17.64 and 17.26 and 17.87 and 16.81 and 18.04 and 17.08
  IL1B_M Normalized CT Value (Delta CT): 14.31 and 14.48 (2×) and 14.19 and 14.00 and 14.25
  IL10_M Normalized CT Value (Delta CT): 25.62 and 25.82 and 25.58 and 25.54 and 25.73 and 25.10
[4]
  Normalized CT Value (Delta CT) IL1RAP_M: 19.02
  Normalized CT Value (Delta CT) IL1RN—M: 18.13
  Normalized CT Value (Delta CT) IL6_M: 25.28
  Normalized CT Value (Delta CT) JUN_M: 20.06
  Normalized CT Value (Delta CT) MEF2C—M: 20.90
  Normalized CT Value (Delta CT) MMP9—M: 15.04
  Normalized CT Value (Delta CT) NFKB1—M: 17.69
  Normalized CT Value (Delta CT) PADI4—M: 18.92
  Normalized CT Value (Delta CT) PLA2G7—M: 15.50
[5]
  Normalized CT Value (Delta CT) IL1RAP_M: 19.08 and 19.03 and 18.86 and 19.29 and 18.97 and 18.89
  Normalized CT Value (Delta CT) IL1RN—M: 17.95 (2×) and 18.43 and 17.84 and 18.46 and 18.15
  Normalized CT Value (Delta CT) IL6_M: 25.40 and 25.42 and 24.75 and 25.06 and 25.35 and 25.72
  Normalized CT Value (Delta CT) JUN_M: 20.06 and 20.45 and 20.53 and 19.72 and 19.52
  Normalized CT Value (Delta CT) MEF2C—M: 21.26 (2×) and 20.26 and 21.57 and 20.41 and 20.64
  Normalized CT Value (Delta CT) MMP9—M: 15.23 and 14.73 and 15.36 and 15.08 and 14.79
  Normalized CT Value (Delta CT) NFKB1—M: 17.74 and 18.12 and 17.25 and 18.27 and 17.28 and 17.46
  Normalized CT Value (Delta CT) PADI4—M: 19.00 and 18.36 and 19.37 and 18.97 and 19.13 and 18.69
  Normalized CT Value (Delta CT) PLA2G7—M: 15.27 and 15.70 and 15.34 and 15.67 and 15.86 and 15.15
KRN Day 21 Dex, group Average
  ABCA1_M Normalized CT Value (Delta CT): 19.00
  APAF1_M Normalized CT Value (Delta CT): 19.85
  ARG2_M Normalized CT Value (Delta CT): 17.59
  CASP1_M Normalized CT Value (Delta CT): 19.48
  CASP3_M Normalized CT Value (Delta CT): 18.35
  CCR3_M Normalized CT Value (Delta CT): 19.66
  CD3Z_M Normalized CT Value (Delta CT): 17.38
  CD14_M Normalized CT Value (Delta CT): 20.44
  CD19_M Normalized CT Value (Delta CT): 17.72
  CD86_M Normalized CT Value (Delta CT): 23.73
[6]
  ABCA1_M Normalized CT Value (Delta CT): 19.52 and 19.29 and 18.57 and 19.09 and 18.61 and 18.92
  APAF1_M Normalized CT Value (Delta CT): 19.76 and 19.88 and 19.81 and 20.29 and 19.46 and 19.93
  ARG2_M Normalized CT Value (Delta CT): 17.45 and 17.78 and 17.56 and 17.29 and 18.09 and 17.36
  CASP1_M Normalized CT Value (Delta CT): 19.34 and 19.90 and 19.57 and 19.28 and 19.50 and 19.31
  CASP3_M Normalized CT Value (Delta CT): 18.21 and 18.52 (2×) and 18.24 and 18.02 and 18.60
  CCR3_M Normalized CT Value (Delta CT): 19.82 and 19.72 and 19.20 and 19.52 and 20.10 and 19.60
  CD3Z_M Normalized CT Value (Delta CT): 17.32 and 17.40 and 17.14 and 17.66 and 17.04 and 17.71
  CD14_M Normalized CT Value (Delta CT): 20.25 and 21.24 and 20.59 and 20.09 and 20.44 and 20.03
  CD19_M Normalized CT Value (Delta CT): 18.44 and 17.98 and 17.64 and 18.11
  CD86_M Normalized CT Value (Delta CT): 23.89 and 23.61 and 23.63 and 24.02 and 23.14 and 24.11

Source: patent US20080227655A1, “Assessment of effect of an agent on a human biological condition using rodent gene expression panels” (priority 2006, published 2008)
